Reference: publication PMC3172082 (Nature, 2009)
Several values for one entry are separate records, joined by “and”; a condition that tells them apart may be missing. Equal values may be shown once.

Assays:
Mtb Erdman = type: cell-based, Mycobacterium tuberculosis; details: non-replicating Mtb
[1] = test system: human monocyte-derived macrophages; assay: Cytotoxicity to human monocyte-derived macrophages; type: cell-based; details: 7 days incubation; GL5 and HT1171 up to 75 μM
BCG = type: cell-based, Mycobacterium bovis var. BCG
mycobacterial proteasome = mycobacterial proteasome (Mycobacterium bovis, UniProt A1KKF3); assay: cell-based; set-up: species or system Mycobacterium bovis var. BCG; details: for inhibition at 50 µM: read-out: inhibition of mycobacterial proteasome activity in intact BCG
mycobacterial proteasome, sequence (A1KKF3 whole entry, looked up): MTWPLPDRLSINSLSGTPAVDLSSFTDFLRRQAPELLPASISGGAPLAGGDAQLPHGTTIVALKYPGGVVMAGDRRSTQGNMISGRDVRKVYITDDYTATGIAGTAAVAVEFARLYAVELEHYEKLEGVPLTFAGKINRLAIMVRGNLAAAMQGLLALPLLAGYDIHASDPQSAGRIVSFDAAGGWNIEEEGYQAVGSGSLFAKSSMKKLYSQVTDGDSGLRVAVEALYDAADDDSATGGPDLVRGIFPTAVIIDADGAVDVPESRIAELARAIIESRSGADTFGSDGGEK

Mtb 20SOG = type: biochemical, Mycobacterium tuberculosis; details: by partition ratios
Mtb20SOG = Mtb20SOG (Mycobacterium tuberculosis, UniProt P9WHT9); assay: High throughput screen, Mtb20SOG hydrolysis of Suc-LLVY-AMC; type: biochemical; details: 33 μM test compounds
Mtb20SOG, sequence (P9WHT9 whole entry, looked up): as the sequence (A1KKF3 whole entry, looked up) above

CSc1sc(C)cc1-c1nsc(=O)o1 [GL5, 5-(5-methyl-2-(methylthio)thiophen-3-yl)-1,3,4-oxathiazol-2-one]
Mtb killed over 4 days in synergy with nitric oxide (Mtb Erdman; dose-dependent, 50 μM DETA-NO): 1.5-2.5 log10 | toxicity to human macrophages [1]: no apparent toxicity | killing of BCG (in words) (BCG): killed BCG alone and in synergy with sub-bacteriostatic fluxes of nitric oxide | reduction of proteasome activity in intact BCG (mycobacterial proteasome): > 80% and ~ 50% | inhibition at 50 µM (mycobacterial proteasome): ~90% | fold more effective against Mtb proteasomes than human proteasomes (Mtb 20SOG): > 1000 fold

Cc1cc(-c2nsc(=O)o2)c(S(C)(=O)=O)s1 [GL6, 5-(5-methyl-2-(methylsulfonyl)thiophen-3-yl)-1,3,4-oxathiazol-2-one]
activity in screen against Mtb20SOG (Mtb20SOG): inactive

CC(C)C[C@H](NC(=O)[C@H](Cc1ccccc1)NC(=O)c1cnccn1)B(O)O [bortezomib, reference compound]
mycobactericidal activity compared with GL5 and HT1171 (in words) (Mtb Erdman; DETA-NO, 4 days): less mycobactericidal | toxicity to human macrophages [1]: toxic | inhibition at 50 µM (mycobacterial proteasome): 52%
